Common to all, as to parameters: species or system Canavalia ensiformis
Assay [1] can be described thus: Inhibitory activity against Alpha-mannosidase (Jack bean).
Assay [2] in a line: Inhibitory activity against Alpha-mannosidase (Jack bean); No inhibition.
Assay [3] can be described thus: Compound (at <10 e -3M) was tested for inhibition of Alpha-mannosidase (jack bean); No inhibition.

The structures appear in SMILES notation.

A word on the IC50: it is the concentration that inhibits the measured activity by half. The low end stands for greater potency, the high end for weaker potency. `N[C@@H]1C[C@H](O)[C@H](O)[C@@H]1O` returned an IC50 in assay [1] of 11 µM.

`CO[C@@H]1[C@@H](N)[C@@H](O)[C@@H](O)[C@H]1O` gave an IC50 in assay [1] of 0.16 µM. This IC50 lies about 69-fold lower than the previous one. Turning to `N[C@H]1[C@@H](O)[C@@H](O)[C@@H](O)[C@@H]1S`, in assay [1], the IC50 was found to be 36 µM. For the molecule `CO[C@@H]1[C@@H](N)[C@@H](OC)[C@@H](O)[C@H]1O`, the IC50 entry in assay [2] is reported as “Not Active”. Regarding `CCS[C@@H]1[C@@H](N)[C@@H](O)[C@@H](O)[C@H]1O`, in assay [1], half-maximal inhibition (IC50) required 5 µM. Take `CO[C@H]1[C@@H](N)[C@@H](O)[C@@H](O)[C@H]1O`: in assay [3], the IC50 entry is “Not Active”. `CS[C@@H]1[C@@H](N)[C@@H](O)[C@@H](O)[C@H]1O` [MANNOSTATIN A]: the IC50 in assay [1] stood at 0.35 µM.

The values above are taken from ChEMBL document CHEMBL1132872, “Synthesis of a potent aminocyclitol alpha-mannosidase inhibitor, 1L-(1,2,3,5/4)-5-amino-4-O-methyl-1,2,3,4-cyclopentanetetrol” (Bioorg Med Chem Lett, 2000).
